We go through 1 compound from patent US20190136188A1, “4HPR AND ITS USE IN THE CULTURING OF HEMATOPOIETIC STEM CELLS” (UNIVERSITY HEALTH NETWORK, priority 2016, published 2019).

For test [1], the system named is ex vivo expanded human CB cells in NSG mice. Kind of test: Primary xenotransplantation of ex vivo expanded CB cells, 16 weeks. The source says: (§1) (A) Experimental scheme (B) Representative FACS analysis data of in vitro culture for 16 HSC dose time course (n=3). The number of (C) viable cells, (D) CD15+ myeloid cells, (E) GlyA+ erythroid cells, and (F) CD34+ primitive cells measured for the 16 LTRC dose with HTS flow cytometry analysis at day 8 post-treatment for vehicle control or 4HPR prior to xenotransplantation (n=5 biological replicates, 4 in technical triplicate, marked with different symbols). (G) Human CD45+ engraftment at 16 weeks post transplant in injected femur (n=4, 5 mice/biological experiment). Lineage analysis of control or 4HPR transplanted mice from FIG. 5G for (H) B lymphoid, (I) myeloid, (J) erythroid, and (K) primitive CD34+ at the 16 LTRC dose. (L) CD45+ cells were isolated from 5 biological experiments of the 16 LTRC dose primary mice and transplanted at limiting doses into secondary recipients for 16 weeks. Human CD45+ marking of >0.1% was considered positive for secondary engraftment. Limiting dilutation analysis was performed using ELDA software and the long-term repopulating cell (LTRC) frequency for each biological replicate plotted and the average LTRC frequency calculated.
All bones for each mouse were pooled following chimerism analysis and frozen for subsequent CD34 hierarchy analysis. Flow cytometry analysis were performed on CD34+ enriched cells using Miltenyl human CD34 enrichment protocol on thawed samples for the human CB hierarchy at the 16 HSC dose from 4 biological experiments, marked with different symbols (n=4 mice per biological experiment). The number of (B) CD34+CD19− cells, (C) CD34+CD38-, (D) CD34+CD38+, (E) HSC, (F) MPP, (G) MLP, and (I) GMP were quantitated from each mouse at 16 weeks post-transplant. Representative HSC hierarchy analysis scheme of CD34 enriched cells isolated from mice 16 weeks post-transplantation engrafted with ex vivo cultured CB cells in the presence of (J) vehicle control (black) or (K) 4HPR (green).
(A) The number of cells following 8 days of ex vivo culture at the 16 LTRC dose grown as in FIG. 5A for the indicated drug treatments (n=2). […] (2 biological replicates) (E) CD45+ cells were isolated from 2 biological experiments of the 16 LTRC dose primary mice and transplanted at limiting doses into secondary recipients for 16 weeks. […] Limiting dilutation analysis was performed using ELDA software and the long-term repopulating cell (LTRC) frequency for each biological replicate plotted and the average LTRC frequency calculated.
(§2) To determine if 4HPR preserves functional HSC in CB liquid culture, we devised an experimental protocol to test the effect of 4HPR treatment in short-term ex vivo expansion culture on repopulation in serial NSG xenotransplantation to functionally read out LT-HSC (FIG. 5A). […]

Test [2] relates to HSPC subpopulations including HSC, MPP and GMP. Kind of test: BrdU incorporation (proliferation rate). Format: cell-based, human. The conditions noted are these: 2 uM 4HPR, day 3 post-treatment. In general terms: Incorporation of labelled thymidine or its analogues reports DNA synthesis.
Test [3] has as its system long-term repopulating cell (LTRC) in NSG mice. Description: Serial (secondary) transplantation limiting dilution analysis, LTRC frequency. The test is classed as in vivo.
Description: as §1
(A) The number of cells following 8 days of ex vivo culture at the 16 LTRC dose grown as in FIG. 5A for the indicated drug treatments (n=2). […] (2 biological replicates) (E) CD45+ cells were isolated from 2 biological experiments of the 16 LTRC dose primary mice and transplanted at limiting doses into secondary recipients for 16 weeks. Human CD45+ marking of >0.01% was considered positive for secondary engraftment. Limiting dilutation analysis was performed using ELDA software and the long-term repopulating cell (LTRC) frequency for each biological replicate plotted and the average LTRC frequency calculated.
as §2

As for `CC1=C(/C=C/C(C)=C/C=C/C(C)=C/C(=O)Nc2ccc(O)cc2)C(C)(C)CCC1` [4HPR, N-(4hydroxyphenyl)retinamide], the “lineage distribution for B lymphoid, myeloid and erythroid” value in test [1] (16 HSC dose, 16 weeks) is “comparable between ctrl and 4HPR transplanted cells”. For the same compound, the “primitive lineage negative CD34+ cells in transplanted mice” value in test [1] (16 LTRC dose, 16 weeks) is recorded as “equally prevalent”. Besides, the “human CD45 chimerism” value in test [1] (16 weeks post transplant, all cell doses) is given as “the same CD45 chimerism as vehicle control”. Further, in test [1] (16 weeks post-transplant, control vs 4HPR expanded cells), the “HSPC populations of the HSC hierarchy in individual mice” value is “on average identical”. Moreover, the “proliferation rate by BrdU incorporation” value in test [2] is on record as “decreased proliferation rate”. For the same compound, the “frequency of LT-HSC” value in test [3] (4HPR added to SR1+UM171 treatment compared to SR1+UM171 treatment alone) is reported as “doubled”. In test [3] (4HPR treated cells, through 32 weeks of xenotransplantation), the “average LTRC frequency” value came out at 1e6 CD45+ cells. Also, in test [3] (through 32 weeks of xenotransplantation, n=5, p=0.02), the “increase in SRC over control treatment” value was 3 fold.
